Results published in patent publication US10703800B2, “Cell culture medium” (La Jolla Biologics, Inc., priority 2016, dated 2020).
Where two headings read alike, the source gives them in different places.

Tests used:
CHO.DXB11 cells [1] = conditions: fed once daily, range 0.1% to 0.4% v/v
Protocol: Ethanol cytotoxicity to CHO.DXB11 cells was determined by daily feed dosing. 4 mL of CHO cells at 3 e6/mL cellular density were seeded into 6 well deep plates, mixed at 150 RPM, and fed once daily with ethanol ranging from 0.1% to 0.4% volume to volume (v/v).

CHO.DXB11 derived clone = conditions: ethanol 0.057% v/v fed daily vs baseline, 12 day fed-batch, mAb1
Protocol: To determine if ethanol altered mAb properties it was incorporated into fully defined and synthetic feed media and fed daily in a fed-batch process using micro—(15 mL working volume) bioreactors.
(§1) Antibody production was performed as described above for mAb 1.
Cell line A is a CHO.DXB11 derived clone producing mAb 1. Cell line B is a different CHO.DXB11 derived clone producing mAb1. The expression cassette is identical between the two cell lines.
(§2) Ethanol was fed daily 0.0% or 0.057% v/v using microscale bioreactors and two different cellular clones producing mAb1. Calculated cumulative cell culture concentration (concentration in vessel at time of cell harvest) of ethanol ranged between 0.0%-0.51% v/v. Bioreactor physical conditions were maintained at a pH of 7.0±0.2, dissolved oxygen at 30% air saturation and a temperature of 35° C. during logarithmic cellular growth phase and shifted to 31° C. during cellular production phase (temperature was shifted one day before max viable cell density was reached). Basal and feed media were fully synthetic and chemically defined containing no animal derived components.

CHO.DXB11 cells [2] = conditions: 12 day fed-batch, prediction profile
Excerpt: Ethanol was used in design of experiments (DOE) created with custom DOE design using JMP statistical software (World Wide Web.jmp.com/en_us/home.html). A response model was created using standard least squares to determine the significance of response from ethanol supplementation. Potential interactions with other supplemented components were also considered. Ethanol was fed daily between 0.0% and 0.1% using microscale bioreactors. FIG. 9 is a prediction response profile for Titer, Man5%, G0%, Acidic % and Basic % species while the change in response values for each of these is shown depicted in Table 4 below.

CHO.DXB11 cells [3] = conditions: high ethanol 0.144% v/v vs low ethanol 0.072% v/v fed daily, 14 day fed-batch, mAb 1
Protocol: as §1
as §2, with “0.072% (Low Ethanol)” for “0.0%”, “0.144% (High Ethanol) v/v.” for “0.057% v/v using microscale bioreactors and two different cellular clones producing mAb1.”, “0.79%-1.58%” for “0.0%-0.51%”, “oxygen maintained” for “oxygen”, “30% of” for “30%”, “saturation,” for “saturation and a”

CHO.DXB11 cells [4] = conditions: 14 day fed-batch
Protocol: as §1
(§3) Ethanol was fed daily between 0.0% and 0.018% v/v. Calculated cumulative cell culture concentration (concentration in vessel at time of cell harvest) of ethanol ranged between 0.0%-0.2% v/v. Bioreactor physical conditions were maintained at a pH of 7.0±0.2 shifted to 6.8±0.1, dissolved oxygen maintained at 30% air saturation and a constant temperature of 35° C. Basal and feed media were fully synthetic and chemically defined containing no animal derived components.
The same basal media was used in formulation #1 and #2. Feed formulation #1 and #2 were similar in composition containing the same type and amount of amino acids and vitamins. Salt and metal ion type and concentration were slightly varied. Both feeds were fully synthetic and chemically defined containing no animal derived components.

CHO.DG44 derived clone = conditions: higher ethanol concentrations (0.05%, 0.15% v/v fed daily) vs baseline, 13 day fed-batch, mAb 2
Protocol: Antibody production was performed as described above for mAb 2. This cell line is a CHO.DG44 derived clone producing mAb 2.
as §3, with “0.15%” for “0.018%”, “0.0%-1.35%” for “0.0%-0.2%”, “7.0±0.1” for “7.0±0.2”

CHO.DXB11 cells [5] = test: Fatty acid cytotoxicity, daily feed dosing; conditions: solubilized in ethanol, fed once daily, 10 μM to 160 μM
Protocol: Fatty acid cytotoxicity to CHO.DXB11 cells was determined by daily feed dosing. 4 mL of CHO cells at 4 e^6/mL cellular density were seeded into 6 well deep plates, mixed at 150 RPM, and daily fed fatty acids. Fatty acids were solubilized in ethanol and fed once daily to increase well plate concentration from 10 μM to 160 μM.

[6] = Formulation 1, ethanol 0.018% v/v fed daily vs baseline lacking ethanol
[7] = Formulation 2, ethanol 0.018% v/v fed daily vs baseline lacking ethanol

**Q.** What does the source list for `CCO` [Ethanol, ethanol]?
**A.** Daily ethanol feeding above which cell growth rate and cell viability were negatively affected (CHO.DXB11 cells [1]): exceeded 0.3 % v/v; Effect on G1F % glycan species (CHO.DXB11 derived clone; both cell lines (A and B)): increased; Effect on G2F % glycan species (CHO.DXB11 derived clone; both cell lines (A and B)): increased; Effect on Man5% glycan species (CHO.DXB11 derived clone; both cell lines (A and B)): decreased; Effect on relative amount of acidic charge variants (CHO.DXB11 derived clone; both cell lines (A and B)): decreased; Effect on relative percentage of basic charge variants (CHO.DXB11 derived clone; both cell lines (A and B)): slightly increasing; Effect on G0% glycan species (CHO.DXB11 derived clone; cell lines A and B): varied with respect to the cell line; Effect on G0F % glycan species (CHO.DXB11 derived clone; cell lines A and B): varied with respect to the cell line; Change in Acidic % (CHO.DXB11 cells [2]; 0.05% v/v ethanol fed daily): −4.7%; Change in Basic % (CHO.DXB11 cells [2]; 0.05% v/v ethanol fed daily): +1.0%; Change in G0% (CHO.DXB11 cells [2]; 0.05% v/v ethanol fed daily): −0.7%; Change in Man5% (CHO.DXB11 cells [2]; 0.05% v/v ethanol fed daily): −1.9%; Change in Titer (CHO.DXB11 cells [2]; 0.05% v/v ethanol fed daily): +2.0%; Change in Acidic % (CHO.DXB11 cells [2]; 0.1% v/v ethanol fed daily): −9.3%; Change in Basic % (CHO.DXB11 cells [2]; 0.1% v/v ethanol fed daily): +1.9%; Change in G0% (CHO.DXB11 cells [2]; 0.1% v/v ethanol fed daily): −1.3%; Change in Man5% (CHO.DXB11 cells [2]; 0.1% v/v ethanol fed daily): −3.8%; Change in Titer (CHO.DXB11 cells [2]; 0.1% v/v ethanol fed daily): +3.9%; Effect on G0 glycan species (CHO.DXB11 cells [3]): less; Effect on G1F glycan species (CHO.DXB11 cells [3]): greater; Effect on G2F glycan species (CHO.DXB11 cells [3]): greater; Effect on Man5 glycan species (CHO.DXB11 cells [3]): less; Effect on high molecular weight species (CHO.DXB11 cells [3]): less; Effect on low molecular weight species (CHO.DXB11 cells [3]): less; Effect on G0F glycan species (CHO.DXB11 cells [4]; [6]): less; Effect on G0 glycan species (CHO.DXB11 cells [4]; [6]): less; Effect on G1F glycan species (CHO.DXB11 cells [4]; [6]): increased; Effect on G2F glycan species (CHO.DXB11 cells [4]; [6]): increased; Effect on Man5 glycan species (CHO.DXB11 cells [4]; [6]): increased; Effect on acidic charge variants (CHO.DXB11 cells [4]; [6]): less; Effect on basic charge variants (CHO.DXB11 cells [4]; [6]): increased; Effect on G0F glycan species (CHO.DXB11 cells [4]; [7]): greater; Effect on G0 glycan species (CHO.DXB11 cells [4]; [7]): decreased; Effect on G1F glycan species (CHO.DXB11 cells [4]; [7]): decreased; Effect on G2F glycan species (CHO.DXB11 cells [4]; [7]): greater; Effect on Man5 glycan species (CHO.DXB11 cells [4]; [7]): decreased; Effect on acidic charge variants (CHO.DXB11 cells [4]; [7]): higher; Effect on G0F glycan species (CHO.DG44 derived clone): decreased; Effect on G0 glycan species (CHO.DG44 derived clone): increased; Effect on G1F glycan species (CHO.DG44 derived clone): increased; Effect on G2F glycan species (CHO.DG44 derived clone): increased; Effect on Man5 glycan species (CHO.DG44 derived clone): decreased; Effect on high molecular weight species (CHO.DG44 derived clone): decreased

**Q.** How did the “Daily feeding concentration at which the supplement became toxic” value (CHO.DXB11 cells [5]) turn out when `CC/C=C\C/C=C\C/C=C\CCCCCCCC(=O)O` [linolenic acid] was run?
**A.** around 40 μM
